Test results reported in US10583137B2, “Triazole DAGLα inhibitors” (THE SCRIPPS RESEARCH INSTITUTE, priority 2015, dated 2020).
Like-named read-outs stand apart in the source and are kept apart here.

Experiments:
[1] = tested on: serine hydrolases; assay: ABPP selectivity against serine hydrolases in mouse brain proteome; type: biochemical
Procedure: Compounds 14 and 17 were evaluated for activity and selectivity against endogenous DAGLs and other serine hydrolases in the mouse brain proteome using a ABPP of mouse brain proteome assay as described in Example 16. These experiments were performed using three different activity-based probesprobe compound 58 (targets DAGLα and DAGLβ), HT-01 (targets DAGLα and DAGLβ), and FP-Rh (broad-spectrum serine hydrolase-directed probe fluorophosphonate-rhodamine).
(§1) Data represent average values±SEM; n=3 per group. […] Compounds 14 and 17 had minimal and negligible binding, respectively, to cannabinoid CB1 (CB1R) and CB2 (CB2R) receptors as measured with a radioligand binding assay (IC50 values>1 μM) (data not shown).
The selectivity of compounds 14 and 17 for additional serine hydrolases was assessed using probe FP-Rh (0.5 μM, 20 min; data not shown). Representative mouse brain serine hydrolases detected by FP-Rh were FAAH, MAGL, and ABHD6.

[2] = biological target: recombinant human DAGLα (Homo sapiens (Human), UniProt Q9Y4D2); assay: SAG substrate assay (in vitro inhibition of 2-AG biosynthesis), membrane lysates from HEK293T cells; type: biochemical; conditions: n=4, read-out: IC50, DAGLα conversion of SAG to 2-AG
Procedure: (§2) DAGL modulators were tested for in vitro inhibition of 2-AG biosynthesis using a 1-stearoyl-2-arachidonoyl-sn-glycerol (SAG) substrate assay in DAGL-transfected HEK293 cells.
(§3) The SAG substrate assay, as described in Journal of lipid research 56(4):927-935, was performed using the following assay conditions: 0.2 U/mL glycerol kinase (GK), glycerol-3-phosphate oxidase (GPO) and horseradish peroxidase (HRP), 0.125 mM ATP, 10 μM Amplifu™Red, 5% DMSO in a total volume of 200 μL. The assay additionally contained SAG, a DAGL modulator, and membrane lysates from HEK293T cells expressing recombinant human DAGLα or DAGLβ.
(§4) Membranes were prepared from HEK293T cells transiently transfected with DAGLα or DAGLβ plasmids encoding for full length DAGLα or DAGLβ, respectively (Angewandte Chemie 52(46):12081-12085; Journal of Medicinal Chemistry 57(15):6610-6622). Briefly, one day prior to transfection, 10^7 cells were seeded in a 15 cm petri dish. The seeded cells were transfected by the addition of a 3:1 mixture of polyethyleneimine (60 μg) and plasmid DNA (20 μg) in 2 mL serum free medium. The medium was refreshed after 24 hr, and after 72 hr the cells were harvested by suspending them in 20 mL medium. The suspension was centrifuged for 10 min at 1000 rpm, and the supernatant was removed. The cell pellet was stored at −80° C. until use. Cell pellets were thawed on ice and suspended in lysis buffer A (20 mM HEPES, 2 mM DTT, 0.25 M sucrose, 1 mM MgCl2, lx protease inhibitor cocktail (Roche cOmplete EDTA free), 25 U/μL Benzonase). The suspension was homogenized by polytrone (3×7 sec) and incubated for 30 min on ice. The suspension was subjected to ultracentrifugation (100,000×g, 30 min, 4° C., Beckman Coulter, Type Ti70 rotor) to yield the cytosolic fraction in the supernatant and the membrane fraction as a pellet. The pellet was resuspended in lysis buffer B (20 mM HEPES, 2 mM DTT, lx protease inhibitor cocktail (Roche cOmplete EDTA free)) and the protein concentration determined with Quick Start Bradford assay (Biorad). The protein fractions were diluted to a total protein concentration of 1 mg/mL and stored in small aliquots at −80° C. until use.

[3] = biological target: recombinant human DAGLβ (Homo sapiens (Human), UniProt Q8NCG7); assay: as above; type: biochemical
Procedure: as §2, §3, §4

[4] = biological target: DAGLβ (hDAGLβ-FLAG) (Homo sapiens (Human), UniProt Q8NCG7); assay: competitive ABPP, membrane proteome of transfected HEK293T cells; type: biochemical; conditions: read-out: DAGLβ IC50
Outline: (§5)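 HEK293T membrane proteome (1 mg/ml) expressing FLAG-tagged human DAGLα or DAGLβ, treated 30 min at room temperature with compound, then 30 min with HT-01 or FP-Rh probe (1 μM). Bands separated by SDS-PAGE were normalized to DMSO for IC50 by variable-slope fit.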

[5] = biological target: DAGLα (hDAGLα-FLAG) (Homo sapiens (Human), UniProt Q9Y4D2); assay: as above; type: biochemical; conditions: read-out: DAGLα IC50
Outline: as §5

[6] = biological target: cannabinoid CB2 (CB2R) receptor (Homo sapiens (Human), UniProt P34972); assay: radioligand binding assay
Procedure: as §1

[7] = biological target: cannabinoid CB1 (CB1R) receptor (Homo sapiens (Human), UniProt P21554); assay: radioligand binding assay
Procedure: as §1

recombinant human DAGLβ, sequence (Q8NCG7 whole entry): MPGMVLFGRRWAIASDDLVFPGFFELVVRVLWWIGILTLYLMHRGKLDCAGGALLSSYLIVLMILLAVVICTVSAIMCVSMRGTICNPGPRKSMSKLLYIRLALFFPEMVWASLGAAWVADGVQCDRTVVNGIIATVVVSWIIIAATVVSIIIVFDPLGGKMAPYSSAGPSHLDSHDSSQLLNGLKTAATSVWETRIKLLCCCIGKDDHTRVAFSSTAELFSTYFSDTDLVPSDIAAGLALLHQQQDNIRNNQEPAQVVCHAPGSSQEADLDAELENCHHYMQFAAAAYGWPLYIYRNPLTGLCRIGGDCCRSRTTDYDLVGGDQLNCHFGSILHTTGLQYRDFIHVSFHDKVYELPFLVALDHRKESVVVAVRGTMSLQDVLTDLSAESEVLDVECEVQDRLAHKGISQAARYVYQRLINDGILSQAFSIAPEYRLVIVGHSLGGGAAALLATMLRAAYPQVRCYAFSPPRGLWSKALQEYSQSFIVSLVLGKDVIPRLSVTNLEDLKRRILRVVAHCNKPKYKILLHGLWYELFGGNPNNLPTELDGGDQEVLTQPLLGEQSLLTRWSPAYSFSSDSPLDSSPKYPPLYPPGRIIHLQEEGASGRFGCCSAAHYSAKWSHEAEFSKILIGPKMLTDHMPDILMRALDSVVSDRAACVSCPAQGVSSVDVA
DAGLβ (hDAGLβ-FLAG), sequence (Q8NCG7 whole entry): as above
DAGLα (hDAGLα-FLAG), sequence (Q9Y4D2 whole entry): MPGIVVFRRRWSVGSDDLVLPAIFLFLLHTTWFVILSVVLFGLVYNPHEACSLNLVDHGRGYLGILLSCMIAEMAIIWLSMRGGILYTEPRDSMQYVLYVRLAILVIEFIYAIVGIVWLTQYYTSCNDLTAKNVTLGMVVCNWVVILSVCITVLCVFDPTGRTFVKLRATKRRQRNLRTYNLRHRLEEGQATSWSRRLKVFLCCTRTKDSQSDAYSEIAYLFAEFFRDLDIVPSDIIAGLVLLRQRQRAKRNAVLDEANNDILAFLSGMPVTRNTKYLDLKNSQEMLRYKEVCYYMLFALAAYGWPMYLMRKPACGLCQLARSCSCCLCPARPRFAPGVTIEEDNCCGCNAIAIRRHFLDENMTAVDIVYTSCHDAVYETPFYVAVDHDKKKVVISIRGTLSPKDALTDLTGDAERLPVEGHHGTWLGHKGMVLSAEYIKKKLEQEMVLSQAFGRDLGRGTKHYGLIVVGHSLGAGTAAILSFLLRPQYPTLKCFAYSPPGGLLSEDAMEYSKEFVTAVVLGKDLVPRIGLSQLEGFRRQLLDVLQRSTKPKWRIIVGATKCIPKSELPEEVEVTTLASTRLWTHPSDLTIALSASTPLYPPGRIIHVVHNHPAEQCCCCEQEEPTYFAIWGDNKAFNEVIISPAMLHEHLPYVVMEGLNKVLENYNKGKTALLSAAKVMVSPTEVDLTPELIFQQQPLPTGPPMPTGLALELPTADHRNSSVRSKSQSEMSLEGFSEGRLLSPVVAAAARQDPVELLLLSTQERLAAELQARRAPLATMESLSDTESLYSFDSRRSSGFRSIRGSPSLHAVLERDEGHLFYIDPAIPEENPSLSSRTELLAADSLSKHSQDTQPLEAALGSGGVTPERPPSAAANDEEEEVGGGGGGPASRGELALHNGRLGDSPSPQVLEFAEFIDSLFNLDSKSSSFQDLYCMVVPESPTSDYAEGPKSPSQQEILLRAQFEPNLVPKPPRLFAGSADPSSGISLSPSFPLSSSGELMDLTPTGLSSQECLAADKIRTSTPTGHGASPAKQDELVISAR
recombinant human DAGLα, sequence (Q9Y4D2 whole entry): as above
cannabinoid CB2 (CB2R) receptor, sequence (P34972 whole entry): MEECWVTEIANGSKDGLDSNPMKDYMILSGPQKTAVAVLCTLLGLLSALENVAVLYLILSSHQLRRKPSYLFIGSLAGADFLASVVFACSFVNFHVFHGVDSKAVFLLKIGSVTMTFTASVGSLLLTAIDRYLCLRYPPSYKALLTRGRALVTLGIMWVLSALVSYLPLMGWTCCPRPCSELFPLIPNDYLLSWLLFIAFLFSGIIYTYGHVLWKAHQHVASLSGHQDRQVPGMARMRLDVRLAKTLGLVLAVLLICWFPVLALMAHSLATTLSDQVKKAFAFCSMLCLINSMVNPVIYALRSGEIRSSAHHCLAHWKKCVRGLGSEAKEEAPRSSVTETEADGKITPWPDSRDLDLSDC
cannabinoid CB1 (CB1R) receptor, sequence (P21554 whole entry): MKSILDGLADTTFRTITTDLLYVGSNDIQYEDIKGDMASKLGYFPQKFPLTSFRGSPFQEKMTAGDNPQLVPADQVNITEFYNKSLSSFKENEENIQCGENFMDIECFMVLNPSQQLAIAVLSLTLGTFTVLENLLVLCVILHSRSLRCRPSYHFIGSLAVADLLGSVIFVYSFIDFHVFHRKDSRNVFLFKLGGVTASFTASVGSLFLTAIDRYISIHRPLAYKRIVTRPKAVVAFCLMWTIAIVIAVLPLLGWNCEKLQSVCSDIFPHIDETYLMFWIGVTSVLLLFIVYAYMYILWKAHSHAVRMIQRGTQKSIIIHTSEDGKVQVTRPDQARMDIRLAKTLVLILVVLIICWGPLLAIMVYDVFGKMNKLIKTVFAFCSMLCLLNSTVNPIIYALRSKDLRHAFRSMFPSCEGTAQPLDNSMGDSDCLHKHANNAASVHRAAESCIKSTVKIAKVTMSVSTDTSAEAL

With `C#CCO[C@@H]1CC[C@H](Cc2ccccc2)N(C(=O)n2ncc(C(O)(c3ccc(F)cc3)c3ccc(F)cc3)n2)C1` [Compound 14, ((2R,5R)-2-Benzyl-5-(prop-2-ynyloxy)piperidin-1-yl)(4-(bis(4-fluorophenyl)(hydroxy)methyl)-2H-1,2,3-triazol-2-yl)methanone] the “selectivity, detectable serine hydrolase off-targets” value [1] was “selective for DAGLs, with the only detectable serine hydrolase off-targets being ABHD6 and PLA2G7”, the IC50 [2] was 6 nM and the IC50 [3] was 3 to 8 nM. The IC50 [4] was no more than 400 nM, the IC50 [5] was no more than 400 nM and the IC50 [6] was greater than 1000 nM. For the same compound, the IC50 [7] was greater than 1000 nM.

`CC(C)(C)OC(=O)N1CCN(C(=O)n2cc(-c3ccc(OC(F)(F)F)cc3)nn2)C(Cc2ccccc2)C1` (centres unmarked) [Compound 17, tert-Butyl 3-benzyl-4-(4-(4-(trifluoromethoxy)phenyl)-1H-1,2,3-triazole-1-carbonyl)piperazine-1-carboxylate] was tested, and the “selectivity, detectable serine hydrolase off-targets” value [1] was “selective for DAGLs, with the only detectable serine hydrolase off-targets being ABHD6 and PLA2G7”, the IC50 [2] was 6 nM and the IC50 [3] was 3 to 8 nM. The IC50 [4] was no more than 400 nM, the IC50 [5] was no more than 400 nM and the IC50 ([6]; radioligand binding assay, read-out: IC50, CB2R binding) was greater than 1000 nM. For the same compound, the IC50 ([7]; radioligand binding assay, read-out: IC50, CB1R binding) was greater than 1000 nM.
